Measured values taken from PubChem BioAssay AID1259407 (Chemical Carcinogenesis Research Information System (CCRIS), 2018).
Calls of active or inactive are those of the source. No rule for the calls is given here.

Tested on: CCRIS mutagenicity, Ames/micronucleus/aberration tests
Assay: CCRIS mutagenicity studies

Measured: mutagenic call

O=S(=O)(C(Cl)(Cl)Cl)C(Cl)(Cl)Cl
inactive: Test System: MOUSE LYMPHOMA, Strain/Indicator: L5178Y (TK+/TK-), Metabolic Activation: NONE, Method: SUSPENSION/PLATE inactive; negative. reevaluation of results: positive | Test System: MOUSE LYMPHOMA, Strain/Indicator: L5178Y (TK+/TK-), Metabolic Activation: RAT, LIVER, S-9, AROCLOR 1254, Method: SUSPENSION/PLATE inactive; negative. reevaluation of results: negative

CCCCCOc1cccc(NC(=O)O[C@@H]2CCCC[C@H]2N2CCCC2)c1
inactive: Test System: AMES SALMONELLA TYPHIMURIUM, Strain/Indicator: TA98, Metabolic Activation: MOUSE, LIVER, S-9, AROCLOR 1254, Method: PREINCUBATION inactive; negative | Test System: AMES SALMONELLA TYPHIMURIUM, Strain/Indicator: TA98, Metabolic Activation: NONE, Method: PREINCUBATION inactive; negative | Test System: AMES SALMONELLA TYPHIMURIUM, Strain/Indicator: TA100, Metabolic Activation: MOUSE, LIVER, S-9, AROCLOR 1254, Method: PREINCUBATION inactive; negative | Test System: AMES SALMONELLA TYPHIMURIUM, Strain/Indicator: TA100, Metabolic Activation: NONE, Method: PREINCUBATION inactive; negative | Test System: AMES SALMONELLA TYPHIMURIUM, Strain/Indicator: TA1535, Metabolic Activation: MOUSE, LIVER, S-9, AROCLOR 1254, Method: PREINCUBATION inactive; negative | Test System: AMES SALMONELLA TYPHIMURIUM, Strain/Indicator: TA1535, Metabolic Activation: NONE, Method: PREINCUBATION inactive; negative | Test System: AMES SALMONELLA TYPHIMURIUM, Strain/Indicator: TA1538, Metabolic Activation: MOUSE, LIVER, S-9, AROCLOR 1254, Method: PREINCUBATION inactive; negative | Test System: AMES SALMONELLA TYPHIMURIUM, Strain/Indicator: TA1538, Metabolic Activation: NONE, Method: PREINCUBATION inactive; negative | Test System: AMES SALMONELLA TYPHIMURIUM, Strain/Indicator: TA1978, Metabolic Activation: MOUSE, LIVER, S-9, AROCLOR 1254, Method: PREINCUBATION inactive; negative | Test System: AMES SALMONELLA TYPHIMURIUM, Strain/Indicator: TA1978, Metabolic Activation: NONE, Method: PREINCUBATION inactive; negative | Test System: E. COLI, Strain/Indicator: CM611 UVRA/LEXA, Metabolic Activation: MOUSE, LIVER, S-9, AROCLOR 1254, Method: PREINCUBATION inactive; negative | Test System: E. COLI, Strain/Indicator: CM611 UVRA/LEXA, Metabolic Activation: NONE, Method: PREINCUBATION inactive; negative | Test System: E. COLI, Strain/Indicator: WP2, Metabolic Activation: MOUSE, LIVER, S-9, AROCLOR 1254, Method: PREINCUBATION inactive; negative | Test System: E. COLI, Strain/Indicator: WP2, Metabolic Activation: NONE, Method: PREINCUBATION inactive; negative | Test System: E. COLI, Strain/Indicator: WP2 UVRA, Metabolic Activation: MOUSE, LIVER, S-9, AROCLOR 1254, Method: PREINCUBATION inactive; negative | Test System: E. COLI, Strain/Indicator: WP2 UVRA, Metabolic Activation: NONE, Method: PREINCUBATION inactive; negative | Test System: E. COLI, Strain/Indicator: WP67 UVRA/POLA, Metabolic Activation: MOUSE, LIVER, S-9, AROCLOR 1254, Method: PREINCUBATION inactive; negative | Test System: E. COLI, Strain/Indicator: WP67 UVRA/POLA, Metabolic Activation: NONE, Method: PREINCUBATION inactive; negative
